{
  "source": "patent US20070225213A1",
  "about": "“Nucleic acid carriers for delivery of therapeutic agents” (priority 2006, published 2007)",
  "key": {"COS7": {"test_system": "COS7", "assay": "Toxicity of NAC-MTN vs CD-MTN and MTN, MTT (Example 9, EX042105)", "format": "cell-based, green monkey", "protocol": "(§1) FIG. 4. […] The relative toxicity of NAC-MTN was compared with MTN and CD-MTN in four cell lines, MCF7(breast cancer), COS7green monkey kidney (SV40 transformed), 3T3 (mouse fibroblast), and BHK21(hamster kidney). Cells were treated with identical amounts of MTN formulated as either NAC-MTN, MTN only, or poly-beta-cyclodextrin-sulfylbutylether(CD-MTN). After an incubation period, cell viability was assayed with MTT assay. The differences in toxicity between NAC-MTN and MTN or NAC-MTN and CD-MTN are shown as % difference. Greater percentage difference correlates to more reduction in relative NAC-MTN toxicity.\n(§2) MCF7, COS7, 3T3, and BHK21 cells were plated out in duplicate rows of equivalent cell density in 100ul final volume. Initial cell densities were 2000 cells/well.\n(§3) Preparing NAC-MTN, CD-MTN, and MTN only. Combined 180 ul of 0.05 mg/ml MTN with […] 0.1 mg/ml herring sperm genomic DNA (HSGDNA, Promega), 1500 ul of 2× DMEM media containing 20% FBS to give 3.0 ml final volume and 12% final drug loading in the dsDNA. For MTN only, 180 ul of MTN was combined with 1320 ul H2O and 1500 ul 2× DMEM. […]\n(§4) Aspirated media in plate and replaced with 50 ul of 0.5 mg/ml MTT in 1× media, incubated 3 hours, aspirated, air dried 5 min and dissolved in 100 ul of isopropyl, read OD at A570. […]"}, "3T3": {"test_system": "3T3", "assay": "Toxicity of NAC-MTN vs CD-MTN and MTN, MTT (Example 9, EX042105)", "format": "cell-based, mouse", "protocol": "as §1, §2, §3, §4"}, "MCF7": {"test_system": "MCF7", "assay": "Effect of plating time on uptake of NAC-MTN and MTN, fluorescence (Example 11)", "format": "cell-based, human", "protocol": "The effect of plating time on the differential rates of uptake between NAC-MTN and MTN were assayed in cells treated <1 hour and 24 hours after plating.\nOn day 1, MCF7, COS7, 3T3, and BHK21 cells were plated out in a standard tissue culture plate. After incubation of 20 minutes samples were added to cells in rows A, C, E, and G. Cells were incubated at 37C in a standard atmosphere of 5%CO2.\nOn day 2, samples were added to rows D, F, and H and the fluorescence was obtained EX620/EM680 S=80. Samples were removed from A,C,E and G, replaced with media and fluorescence read again. On day 2 observed significant drug toxicity in cells of rows A,C, E, G. Sample addition was postponed in row B since MCF7 were not yet confluent.\nOn day 3, added samples to cells in row B containing confluent MCF7's, removed samples from rows D, F, and H replaced with media and read fluorescence.\nFluorescence data from cells taken after removal of media was used to quantitate total MTN retained in the cells. Fluorescence data were converted to mg/ml MTN using a standard curve prepared with free MTN or NAC-MTN.\nThe percentage difference in fluorescence between cells treated with NAC-MTN or MTN alone was used to compare relative drug uptake.\nThe MTN fluorescence ratios were obtained by dividing MTN fluorescence of cells incubated for 24 hours by fluorescence of cells incubated 30 minutes. […] The uptake in BHK21 was roughly equivalent for NAC-MTN regardless of plate adherence, however it should be noted that BHK21 adhere very rapidly to the plate.\nFluorescence data were converted to micromolar drug concentrations (uM MTN) using a standard curve for either nucleic acid bound or unbound drug, and drug uptake ratios were obtained by dividing the t(24 hour)/t(30 min.). The ratios of absolute drug concentration per well show more dramatic differences in uptake as shown below."}, "[1]": {"details": "2 uM final MTN, MTT 48 hours after adding samples"}},
  "data": [
    {"smiles": "O=C1c2c(O)ccc(O)c2C(=O)c2c(NCCNCCO)ccc(NCCNCCO)c21", "note": "[MTN, mitoxantrone]", "values": [
      {"measurement": "% tox. relative to media only", "setting": "COS7; [1]", "result": 56.65, "unit": "%"},
      {"measurement": "toxic effect", "setting": "COS7; after 24 hours, 2 uM MTN", "result": "no toxic effect"},
      {"measurement": "% tox. relative to media only", "setting": "3T3; [1]", "result": 37.57, "unit": "%"},
      {"measurement": "toxic effect", "setting": "3T3; after 24 hours, 2 uM MTN", "result": "no toxic effect"},
      {"measurement": "MTN FLUOR Ratio of t(24)/t(<1)", "setting": "MCF7", "result": 0.75},
      {"measurement": "FLUOR (MTN fluorescence in cells)", "setting": "MCF7; cells treated 24 hour after plating", "result": 18819},
      {"measurement": "FLUOR (MTN fluorescence in cells)", "setting": "MCF7; cells treated <1 hour after plating", "result": 16651},
      {"measurement": "Ratio uM MTN of t(24)/t(<1)", "setting": "MCF7; from standard curve for bound or unbound drug", "result": 1.2}
    ]}
  ]
}
